Source: US20070160491A1, “Method For Determining Lumen Penetration Of A Vapor Phase Sterilant” (priority 2002, published 2007)
Several values for one entry are separate records, joined by “and”; a condition that tells them apart may be missing. Equal values may be shown once. Read-outs that look alike come from different tables or passages of the source.

Experiments:
[1] = 30 °C
Method: (§1) Correcting the rate constant from 0.46 sec^−1 at 30° C. to 1.41 sec^−1 at 5° C. is initiated by writing the rate constant as the sum of the decomposition rate constant k^D and the condensation rate constant k^C. […] For a rate constant 0.46 sec^−1 at 30° C., each individual rate constant of decomposition k^D and condensation k^C is approximately 0.46/2=0.23 sec^−1. […] The rate constant of decomposition k^D at 5° C. is calculated from the rate constant of decomposition k^D at 30° C. and the rate factors for decomposition at 30° C. and 5° C.: k^D at 5° C.=0.23 sec^−1×(1 rate factor at 5° C./7 rate factor at 30° C.)=0.03 sec^−1. […] Finally, the rate constant at 5° C. is calculated as the sum of the rate constants of condensation k^C and of decomposition k^D at 5° C.: k at 5° C.=1.38 sec^−1+0.03 sec^−1=1.41 sec^−1.

[2] = for rate constant of condensation k^C / rate constant of decomposition k^D: 3 mm stainless steel lumen
Text: k=rate constant for losses in the lumen, sec^−1
The rate of mass input per volume to the lumen 20 by internal processes is a negative term, whenever mass is lost in the lumen 20 by decomposition, absorption, adsorption and condensation. In that case the rate constant k is a negative number.
The rate constant k cannot be measured experimentally inside the lumen 20 without disturbing the internal environment, so a value is assigned for each lumen material, such as stainless steel and polyethylene. The value is adjusted to provide an area scale, which correlates efficacy results from the sterilization cycles, as discussed below.
(§2) An estimate of the area under the concentration-time curve is obtained by summing the one-second concentration values in the injection and diffusion steps of the cycle, as shown in Table 1 for sterilization cycles in a STERRAD® 200 […] sterilizer available from Advanced Sterilization Products division of Ethicon, Inc., Irvine, Calif., with different lumens in the validation load. The area scale for stainless steel (SS) is established by setting the value of the rate constant k equal to 0.46 sec^−1 to give an area of approximately 100 mg−sec/l for the cycles with 3 mm×500 mm stainless steel lumens at 30° C.
as §1
The adjustment for diameter is made in Table 1 by correcting the rate constant 0.46 sec^−1 for 3 mm stainless steel lumens to 4.14 sec^−1 for 1 mm lumens with factors for the surface to volume ratio and diffusion radius ratio.
Surface to volume ratio correction factor=(surface/volume)1 mm/(surface/volume)3 mm=(2πrL)1 mm/(2πrL/πr^2L)3 mm=(1/r)1 mm/(1/r)3 mm=[…]=1.5 mm/0.5 mm=3
In addition to correction for surface to volume ratio, correction of the rate constant 0.46 sec^−1 for diffusion radius is necessary, because diffusion to the wall of the smaller lumen is greater than for the larger one. Diffusion radius ratio correction factor=(r)3 mm/(r)1 mm=1.5 mm/0.5 mm=3
The area scale for the second lumen material, polyethylene (PE), in Table 1 is established similarly for a limiting case in the STERRAD® 200 Sterilizer. The rate constant is set at 0.33 sec^−1 for 1 mm×500 mm lumens to give an area of approximately 100 mg−sec/l. […] The rate constant 0.33 sec^−1 for lumens with 1 mm diameter is corrected with factors for the surface to volume ratio and diffusion radius ratio to obtain the rate constant 0.037 sec-^−1 for 3 mm lumens.

[3] = cited from earlier work
[4] = test system: biological indicators (test microorganisms)
Text: However, other process variables are also important, such as chamber and load temperature, size and composition of the load and exposure time. For a fixed load configuration in a particular sterilizer with a qualified sterilization cycle, temperature remains relatively constant during injection, so concentration and exposure time become the most important control variables. Area under a concentration-time curve is a useful index for quantifying cycle performance to compare with efficacy as measured via biological indicators.
as §2

[5] = cited from earlier work; remark: listed apart in the source
[6] = lumen 0.8 × 100 mm SS, 30 °C, injection time 6.5 min
[7] = lumen 0.8 × 150 mm SS, 30 °C, injection time 6.5 min
[8] = lumen 1 × 125 mm SS, 30 °C, injection time 6.5 min
[9] = lumen 1 × 500 mm PE, 30 °C, injection time 6.5 min
[10] = lumen 1 × 700 mm PE, 30 °C, injection time 6.5 min
[11] = lumen 3 × 400 mm SS, 5 °C, injection time 6.5 min
[12] = lumen 3 × 400 mm SS, 30 °C, injection time 1 min
[13] = lumen 3 × 400 mm SS, 30 °C, injection time 2 min
[14] = lumen 3 × 400 mm SS, 30 °C, injection time 6.5 min
[15] = lumen 3 × 500 mm SS, 30 °C, injection time 6.5 min
[16] = lumen 3 × 1000 mm PE, 30 °C, injection time 6.5 min
[17] = lumen 3 × 1500 mm PE, 30 °C, injection time 6.5 min

Rate Factor for Decomposition [1]: 7
SMILES: OO [hydrogen peroxide]
−k, rate constant for losses in the lumen ([2]; 0.8 mm stainless steel lumens, 30 °C, k3 mm × 3.75 × 3.75): 6.47 s⁻¹
−k, rate constant for losses in the lumen ([2]; 0.8 mm stainless steel lumens, 30 °C, k3 mm × 3.75 × 3.75, listed as H2O2): 6.47 s⁻¹
−k, rate constant for losses in the lumen ([2]; 1 mm polyethylene lumens, 30 °C, k chosen to give 100 mg-sec/l area threshold): 0.33 s⁻¹
−k, rate constant for losses in the lumen ([2]; 1 mm polyethylene lumens, 30 °C, k chosen to give 100 mg-sec/l area threshold, listed as H2O2): 0.33 s⁻¹
−k, rate constant for losses in the lumen ([2]; 1 mm stainless steel lumens, 30 °C, k3 mm × 3 × 3): 4.14 s⁻¹
−k, rate constant for losses in the lumen ([2]; 1 mm stainless steel lumens, 30 °C, k3 mm × 3 × 3, listed as H2O2): 4.14 s⁻¹
−k, rate constant for losses in the lumen ([2]; 1 mm stainless steel lumens, 30 °C, k3 mm × 3 × 3, listed as Hydrogen Peroxide): 4.14 ^d sec^−1
−k, rate constant for losses in the lumen ([2]; 3 mm polyethylene lumens, 30 °C, k1 mm/(3 × 3)): 0.037 s⁻¹
−k, rate constant for losses in the lumen ([2]; 3 mm polyethylene lumens, 30 °C, k1 mm/(3 × 3), listed as H2O2): 0.037 s⁻¹
−k, rate constant for losses in the lumen ([2]; 3 mm polyethylene lumens, 30 °C, k1 mm/(3 × 3), listed as Hydrogen Peroxide): 0.037 ^f sec^−1 and 0.037 sec^−1
rate constant of condensation k^C ([2]; 5 °C): 1.38 s⁻¹
rate constant of decomposition k^D ([2]; 5 °C): 0.03 s⁻¹
rate constant of condensation k^C ([2]; 30 °C): ~0.23 s⁻¹
rate constant of decomposition k^D ([2]; 30 °C): ~0.23 s⁻¹
−k, rate constant for losses in the lumen ([2]; 3 mm stainless steel lumens, 5 °C, calculated from k at 30 °C, vapor pressure data and decomposition rate factor): 1.41 s⁻¹
−k, rate constant for losses in the lumen ([2]; 3 mm stainless steel lumens, 5 °C, calculated from k at 30 °C, vapor pressure data and decomposition rate factor, listed as H2O2): 1.41 s⁻¹
−k, rate constant for losses in the lumen ([2]; 3 mm stainless steel lumens, 5 °C, calculated from k at 30 °C, vapor pressure data and decomposition rate factor, listed as Hydrogen Peroxide): 1.41 ^c sec^−1
−k, rate constant for losses in the lumen ([2]; 3 mm stainless steel lumens, 30 °C, k chosen to give 100 mg-sec/l area threshold): 0.46 s⁻¹
−k, rate constant for losses in the lumen ([2]; 3 mm stainless steel lumens, 30 °C, k chosen to give 100 mg-sec/l area threshold, listed as H2O2): 0.46 s⁻¹
Rate Factor for Decomposition ([3]; 5 °C (base case)): 1
Rate Factor for Decomposition ([3]; 5 °C (base case), listed as Hydrogen Peroxide): 1 Base Case
Rate Factor for Decomposition ([3]; 15 °C): 2.2
Rate Factor for Decomposition ([3]; 25 °C): 4.84
Rate Factor for Decomposition ([3]; 35 °C): 10.65
Rate Factor for Decomposition ([3]; 45 °C): 23.4
factor by which the decomposition rate increases ([3]; per each 10 °C rise in temperature): 2.2
Fraction Positive Biological Indicators [4, 6]: 0/48
Indicator Results Zone [4, 6]: Negative
Fraction Positive Biological Indicators [4, 7]: 2/24
Indicator Results Zone [4, 7]: Positive
Fraction Positive Biological Indicators [4, 8]: 0/36
Indicator Results Zone [4, 8]: Negative
Fraction Positive Biological Indicators [4, 9]: 0/36
Indicator Results Zone [4, 9]: Mixed
Fraction Positive Biological Indicators [4, 10]: 1/12
Indicator Results Zone [4, 10]: Positive
Fraction Positive Biological Indicators [4, 11]: 1/72
Indicator Results Zone [4, 11]: Positive
Fraction Positive Biological Indicators [4, 12]: 4/72
Indicator Results Zone [4, 12]: Mixed
Fraction Positive Biological Indicators [4, 13]: 0/72
Indicator Results Zone [4, 13]: Mixed
Fraction Positive Biological Indicators [4, 14]: 0/72
Indicator Results Zone [4, 14]: Negative
Fraction Positive Biological Indicators [4, 15]: 0/96
Indicator Results Zone [4, 15]: Mixed
Fraction Positive Biological Indicators [4, 16]: 0/36
Indicator Results Zone [4, 16]: Negative
Indicator Results Zone ([4]; lumen 3 × 1500 mm PE, 30 °C, injection time 20, 25, 30 min): Negative
Fraction Positive Biological Indicators [4, 17]: 1/36
Indicator Results Zone [4, 17]: Mixed
Fraction Positive Biological Indicators ([4]; lumen 3 × 1500 mm PE, 30 °C, injection time 20 min): 0/12
Fraction Positive Biological Indicators ([4]; lumen 3 × 1500 mm PE, 30 °C, injection time 25 min): 0/12
Fraction Positive Biological Indicators ([4]; lumen 3 × 1500 mm PE, 30 °C, injection time 30 min): 0/12
Fraction Positive BIs ([4]; lumen 3 × 1500 mm PE, 30 °C, injection times 20, 25, 30 min pooled): 0/36
vapor pressure of hydrogen peroxide ([5]; at 5 °C): 0.46 mm Hg
vapor pressure of hydrogen peroxide ([5]; at 30 °C): 2.77 mm Hg
